Laboratory results published in DBAASP.
Values after ≈ are worked out from the molar mass of the structure shown. One block for each molecule: values may come before it.

Assays:
Assay in all cases: ≥ marks a high value that may be exact or a test limit, other limits are often not marked, values filed in µg/mL are converted to µM
Staphylococcus aureus = tested on: Staphylococcus aureus
[1] = tested on: Candida albicans F7-39/IDE99
Pseudomonas aeruginosa = tested on: Pseudomonas aeruginosa
Bacillus subtilis = tested on: Bacillus subtilis
Escherichia coli B = tested on: Escherichia coli B
Enterococcus gallinarum = tested on: Enterococcus gallinarum
Enterococcus faecalis = tested on: Enterococcus faecalis
Acinetobacter baumannii = tested on: Acinetobacter baumannii
Raoultella terrigena = tested on: Raoultella terrigena
[2] = tested on: Staphylococcus aureus NCTC 8325
[3] = tested on: Enterococcus faecalis ATCC 29212
[4] = tested on: Escherichia coli ATCC 25922
[5] = tested on: Staphylococcus epidermidis RP62A
[6] = tested on: Pseudomonas aeruginosa ATCC 27853
[7] = tested on: Enterobacter cloacae HNTCC 53001
[8] = tested on: Klebsiella pneumoniae KK3 9904
[9] = tested on: Proteus mirabilis ATCC 25933
[10] = tested on: Candida albicans ATCC 90028
[11] = tested on: Candida albicans ATCC 18804
[12] = tested on: Aggregatibacter actinomycetemcomitans ATCC 29522
[13] = tested on: Staphylococcus aureus ATCC 25923
[14] = tested on: Candida albicans NCTC 3179
[15] = tested on: Enterococcus faecalis NCTC 12697
[16] = tested on: Lactobacillus acidophilus NCTC 1723
[17] = tested on: Streptococcus mutans NCTC 10449
[18] = tested on: Staphylococcus epidermidis RP62A/1
[19] = tested on: Klebsiella pneumoniae ATCC 700603
[20] = tested on: Escherichia coli ATCC 25726
[21] = tested on: Staphylococcus aureus ATCC 29213
[22] = tested on: Stenotrophomonas maltophilia
[23] = tested on: Trichosporon beigelii KCTC 7251
[24] = tested on: Serratia marcescens KCTC 1299
[25] = tested on: Escherichia coli KCTC 1682
[26] = tested on: Staphylococcus aureus KCTC 1621
[27] = tested on: Candida albicans KCTC 7121
[28] = tested on: Bacillus subtilis KCTC 3068
[29] = tested on: Streptococcus pyogenes KCTC 3096
[30] = tested on: Fusarium oxysporum KCTC 6084
[31] = tested on: Salmonella typhimurium KCTC 1926
[32] = tested on: Aspergillus flavus KCTC 7375
[33] = tested on: Pseudomonas aeruginosa KCTC 1637

MIC (Staphylococcus aureus): > 100 µM
MIC [1]: ≥ 100 µM
MIC (Pseudomonas aeruginosa): > 100 µM
MIC (Bacillus subtilis): ≥ 65 µM
MIC (Escherichia coli B): ≥ 100 µM
Structure (SMILES): CC(C)C[C@@H]1NC(=O)[C@H](CCCCN)NC(=O)[C@H](CC(C)C)NC(=O)[C@@H]2CCCN2C(=O)CNC(=O)[C@H](CCCCN)NC(=O)[C@@H](NC(=O)[C@H](CCCCN)NC(=O)CNC(=O)[C@H](CCCCN)NC(=O)[C@H](CCCCN)NC(=O)[C@H](CCCCN)NC(=O)[C@H](C)N)CSSC[C@@H](C(N)=O)NC(=O)[C@H](CCCCN)NC(=O)[C@H](C)NC(=O)[C@H](C(C)C)NC1=O [AKKKGKCKGPLKLVAKC]

MIC (Enterococcus gallinarum): 26.3 µM (≈ 13.7 µg/mL)
MIC (Enterococcus faecalis): ≥ 53.8 µM
MIC (Acinetobacter baumannii): 26.3 µM (≈ 13.7 µg/mL)
MIC (Raoultella terrigena): 26.3 µM (≈ 13.7 µg/mL)
MIC (Pseudomonas aeruginosa): 26.3 µM (≈ 13.7 µg/mL)
Structure (SMILES): CSCC[C@H](NC(=O)[C@H](C)NC(C)=O)C(=O)N[C@H](C(=O)NCC(=O)N[C@H](C(=O)O)[C@@H](C)O)C(C)C [AMVGT]

MIC [2]: ≥ 200 µM
MIC [3]: 200 µM (≈ 508 µg/mL)
MIC [4]: 25 µM (≈ 63.6 µg/mL)
MIC [5]: ≥ 100 µM
MIC [6]: 100 µM (≈ 254 µg/mL)
MIC [7]: ≥ 50 µM
MIC [8]: ≥ 100 µM
MIC [9]: ≥ 200 µM
MIC [10]: ≥ 200 µM
Structure (SMILES): CSCC[C@H](NC(=O)[C@@H](NC(=O)[C@H](CCCCN)NC(=O)[C@H](CO)NC(=O)[C@H](C)NC(=O)[C@H](CC(C)C)NC(=O)[C@H](CO)NC(=O)CNC(=O)[C@@H](NC(=O)[C@@H](NC(=O)[C@H](CC(N)=O)NC(=O)[C@H](CCCCN)NC(=O)[C@H](C)NC(=O)[C@H](C)NC(=O)CNC(=O)[C@H](CCCCN)NC(=O)[C@H](CC(C)C)NC(=O)[C@@H](NC(=O)[C@H](CC(=O)O)NC(=O)[C@H](CC(C)C)NC(=O)[C@H](CC(C)C)NC(=O)CN)[C@@H](C)O)C(C)C)C(C)C)C(C)C)C(=O)N[C@@H](CCC(=O)O)C(=O)N[C@@H](CCCCN)C(=O)N[C@@H](CC(C)C)C(N)=O [GLLDTLKGAAKNVVGSLASKVMEKL]

MIC [11]: ≥ 234 µM
MIC [12]: ≥ 222 µM
MIC [4]: 114 µM (≈ 250 µg/mL)
Structure (SMILES): CC[C@H](C)[C@H](NC(=O)[C@H](CC(=O)O)NC(=O)[C@H](CCCCN)NC(=O)[C@H](C)NC(=O)[C@H](C)NC(=O)CNC(=O)[C@H](CCCCN)NC(=O)[C@H](CC(C)C)NC(=O)[C@@H](NC(=O)[C@H](CC(=O)O)NC(=O)[C@@H](NC(=O)[C@@H](NC(=O)CN)C(C)C)C(C)C)[C@@H](C)CC)C(=O)N[C@@H](C)C(=O)NCC(=O)N[C@@H](Cc1cnc[nH]1)C(=O)N[C@@H](CC(C)C)C(=O)N[C@@H](C)C(=O)N[C@@H](CO)C(=O)N[C@@H](CCCCN)C(=O)N[C@H](C(=O)N[C@@H](CCSC)C(N)=O)C(C)C [GVVDILKGAAKDIAGHLASKVM]

MIC [13]: > 441 µM
MIC [14]: ≥ 441 µM
MIC [15]: ≥ 441 µM
MIC [4]: > 441 µM
MIC [6]: > 441 µM
MIC [16]: ≥ 441 µM
MIC [17]: ≥ 441 µM
Structure (SMILES): CSCC[C@H](NC(=O)[C@H](CC(C)C)NC(=O)CNC(=O)[C@@H](NC(=O)[C@H](Cc1ccccc1)NC(=O)[C@H](CO)NC(=O)[C@H](CC(=O)O)NC(=O)[C@@H](NC(=O)[C@H](CCCCN)NC(=O)[C@@H](N)Cc1cnc[nH]1)[C@@H](C)O)C(C)C)C(N)=O [HKTDSFVGLM]

MIC [13]: 3.1 µM (≈ 9.54 µg/mL)
MIC (Acinetobacter baumannii): 3.1 µM (≈ 9.54 µg/mL)
MIC [18]: 0.8 µM (≈ 2.46 µg/mL)
MIC [19]: 12.5 µM (≈ 38.5 µg/mL)
MIC [20]: 6.25 µM (≈ 19.2 µg/mL)
MIC [5]: 1.6 µM (≈ 4.92 µg/mL)
MIC [6]: 25 µM (≈ 76.9 µg/mL)
MIC [21]: 3.1 µM (≈ 9.54 µg/mL)
MIC [9]: ≥ 100 µM
MIC [10]: ≥ 50 µM
MIC [22]: 3.1 µM (≈ 9.54 µg/mL)
Structure (SMILES): CC[C@H](C)[C@H](N)C(=O)N[C@@H](CCCCN)C(=O)N[C@@H](CC(C)C)C(=O)N[C@@H](CO)C(=O)N1CCC[C@H]1C(=O)N[C@@H](CCC(=O)O)C(=O)N[C@H](C(=O)N[C@@H](CCCCN)C(=O)N[C@@H](CCCCN)C(=O)N[C@@H](CC(N)=O)C(=O)N[C@@H](CC(C)C)C(=O)N[C@@H](CCCCN)C(=O)N[C@@H](CCCCN)C(=O)N[C@H](C(=O)N[C@@H](CC(C)C)C(=O)N[C@@H](CCCCN)C(=O)NCC(=O)N[C@@H](C)C(=O)N[C@H](C(=O)N[C@@H](CCCCN)C(=O)NCC(=O)N[C@@H](C)C(=O)N[C@H](C(=O)N[C@@H](C)C(=O)N[C@H](C(=O)N[C@@H](C)C(=O)N[C@@H](CCCCN)C(=O)N[C@@H](CCSC)C(=O)N[C@H](C(N)=O)C(C)C)C(C)C)[C@@H](C)CC)[C@@H](C)CC)C(C)C)[C@@H](C)O [IKLSPETKKNLKKVLKGAIKGAIAVAKMV]

MIC [23]: 12.5 µM (≈ 28.7 µg/mL)
MIC [24]: 3.13 µM (≈ 7.2 µg/mL)
MIC [25]: 3.13 µM (≈ 7.2 µg/mL)
MIC [26]: 1.56 µM (≈ 3.59 µg/mL)
MIC [27]: 12.5 µM (≈ 28.7 µg/mL)
MIC [28]: 0.78 µM (≈ 1.79 µg/mL)
MIC [29]: 3.13 µM (≈ 7.2 µg/mL)
MIC [30]: 25 µM (≈ 57.5 µg/mL)
MIC [31]: 1.56 µM (≈ 3.59 µg/mL)
MIC [32]: 25 µM (≈ 57.5 µg/mL)
MIC [33]: 1.56 µM (≈ 3.59 µg/mL)
Structure (SMILES): CC[C@H](C)[C@H](NC(=O)[C@H](CCCCN)NC(=O)[C@H](CCCCN)NC(=O)[C@H](Cc1ccccc1)NC(=O)[C@H](CC(C)C)NC(=O)[C@H](CCCCN)NC(=O)[C@H](Cc1c[nH]c2ccccc12)NC(=O)[C@H](CCCCN)NC(=O)[C@@H]1CCCN1C(=O)[C@H](Cc1ccccc1)NC(=O)[C@H](CCCCN)NC(=O)[C@H](CCCCN)NC(=O)[C@H](C)NC(=O)[C@H](CC(C)C)NC(=O)[C@H](Cc1cnc[nH]1)NC(=O)[C@H](CC(C)C)NC(=O)[C@H](Cc1ccccc1)NC(=O)[C@@H](N)CCCCN)C(N)=O [KFLHLAKKFPKWKLFKKI]
